Experimental data from patent publication US8461152B2, “Arylcyclohexylethers of dihydrotetraazabenzoazulenes” (Hoffmann-La Roche Inc., priority 2008, dated 2013).

What follows are compounds tested against T1, human V1a receptor (Homo sapiens, UniProt P37288) (assay: human V1a receptor binding studies (SPA, 3H-Vasopressin, membranes of transfected HEK293 cells)). Conditions: displacement of 3H-Vasopressin, HEK293 cell membranes, 1 h at room temperature; Ki by Cheng-Prussoff equation; read-out: pKi (hV1a) (converted).
T1 construct: expressed in transfected cells; host or cells: HEK293 cells, transiently transfected; membrane preparation
T1 sequence (P37288 whole entry): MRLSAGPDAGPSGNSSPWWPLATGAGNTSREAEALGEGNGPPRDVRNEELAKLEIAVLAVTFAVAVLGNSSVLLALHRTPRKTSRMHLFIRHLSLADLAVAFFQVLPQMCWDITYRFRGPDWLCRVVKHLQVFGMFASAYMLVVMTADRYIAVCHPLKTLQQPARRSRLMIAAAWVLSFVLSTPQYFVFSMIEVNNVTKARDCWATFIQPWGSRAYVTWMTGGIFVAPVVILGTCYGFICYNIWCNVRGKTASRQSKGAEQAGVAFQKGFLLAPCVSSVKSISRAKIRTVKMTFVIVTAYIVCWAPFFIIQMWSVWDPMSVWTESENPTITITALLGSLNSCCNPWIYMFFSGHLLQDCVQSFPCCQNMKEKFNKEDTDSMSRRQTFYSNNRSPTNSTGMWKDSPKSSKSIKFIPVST
Description: The human V1a receptor was cloned by RT-PCR from total human liver RNA. The coding sequence was subcloned in an expression vector after sequencing to confirm the identity of the amplified sequence. […] Cell membranes were prepared from HEK293 cells transiently transfected with the expression vector and grown in 20 liter fermenters with the following protocol.
50 g of cells are resuspended in 30 ml freshly prepared ice cold Lysis buffer (50 mM HEPES, 1 mM EDTA, 10 mM magnesium dichloride adjusted to pH=7.4+complete cocktail of protease inhibitor (Roche Diagnostics)). Homogenized with Polytron for 1 min and sonicated on ice for 2×2 minutes at 80% intensity (Vibracell sonicator). The preparation is centrifuged 20 min at 500 g at 4° C., the pellet is discarded and the supernatant centrifuged 1 hour at 43'000 g at 4° C. (19'000 rpm). The pellet is resuspended in 12.5 ml Lysis buffer+12.5 ml Sucrose 20% and homogenized using a Polytron for 1-2 min. The protein concentration is determined by the Bradford method and aliquots are stored at −80° C. until use. For binding studies 60 mg Yttrium silicate SPA beads (Amersham) are mixed with an aliquot of membrane in binding buffer (50 mM Tris, 120 mM sodium chloride, 5 mM potassium chloride, 2 mM Calcium dichloride, 10 mM magnesium dichloride) for 15 minutes with mixing. 50 μl of bead/membrane mixture is then added to each well of a 96 well plate, followed by 50 μl of 4 nM 3H-Vasopressin (American Radiolabeled Chemicals). For total binding measurement 100 μl of binding buffer are added to the respective wells, for non-specific binding 100 μl of 8.4 mM cold vasopressin and for compound testing 100 μl of a serial dilution of each compound in 2% dimethyl sulfoxide. The plate is incubated 1 h at room temperature, centrifuged […] at 1000 g and counted on a Packard Top-Count. Non-specific binding counts are subtracted from each well and data is normalized to the maximum specific binding set at 100%. To calculate an IC 50 the curve is fitted using a non-linear regression model (XLfit) and the Ki is calculated using the Cheng-Prussoff equation.

| SMILES | Ki [nM] |
| --- | --- |
| CN1Cc2cc(Cl)ccc2-n2c(nnc2[C@H]2CC[C@H](Oc3ncccn3)CC2)C1 [Example 82, trans-8-Chloro-5-methyl-1-[4-(pyrimidin-2-yloxy)-cyclohexyl]-5,6-dihydro-4H-2,3,5,10b-tetraaza-benzo[e]azulene] | 5.5 |
| CC(C)(C)OC(=O)N1Cc2cc(Cl)ccc2-n2c(nnc2[C@H]2CC[C@H](Oc3cnccn3)CC2)C1 [Example 83, trans-8-Chloro-1-[4-(pyrazin-2-yloxy)-cyclohexyl]-4H,6H-2,3,5,10b-tetraaza-benzo[e]azulene-5-carboxylic acid tert-butyl ester] | 4.07 |
| CN1Cc2cc(Cl)ccc2-n2c(nnc2[C@H]2CC[C@H](Oc3cnccn3)CC2)C1 [Example 85, trans-8-Chloro-5-methyl-1-[4-(pyrazin-2-yloxy)-cyclohexyl]-5,6-dihydro-4H-2,3,5,10b-tetraaza-benzo[e]azulene] | 7.59 |
| CC(C)(C)OC(=O)N1Cc2cc(Cl)ccc2-n2c(nnc2[C@H]2CC[C@H](Oc3ccncn3)CC2)C1 [Example 86, trans-8-Chloro-1-[4-(pyrimidin-4-yloxy)-cyclohexyl]-4H,6H-2,3,5,10b-tetraaza-benzo[e]azulene-5-carboxylic acid tert-butyl ester] | 3.47 |
| CN1Cc2cc(Cl)ccc2-n2c(nnc2[C@H]2CC[C@H](Oc3ccncn3)CC2)C1 [Example 89, trans-8-Chloro-5-methyl-1-[4-(pyrimidin-4-yloxy)-cyclohexyl]-5,6-dihydro-4H-2,3,5,10b-tetraaza-benzo[e]azulene] | 12.3 |
| CC(C)(C)OC(=O)N1Cc2cc(Cl)ccc2-n2c(nnc2[C@H]2CC[C@H](Oc3cccnn3)CC2)C1 [Example 92, trans-8-Chloro-1-[4-(pyridazin-3-yloxy)-cyclohexyl]-4H,6H-2,3,5,10b-tetraaza-benzo[e]azulene-5-carboxylic acid tert-butyl ester] | 2.4 |
| CC(C)(C)OC(=O)N1Cc2cc(Cl)ccc2-n2c(nnc2[C@H]2CC[C@@H](Oc3cccnn3)CC2)C1 [Example 93, cis-8-Chloro-1-[4-(pyridazin-3-yloxy)-cyclohexyl]-4H,6H-2,3,5,10b-tetraaza-benzo[e]azulene-5-carboxylic acid tert-butyl ester] | 7.94 |
| CN1Cc2cc(Cl)ccc2-n2c(nnc2[C@H]2CC[C@H](Oc3cccnn3)CC2)C1 [Example 95, trans-8-Chloro-5-methyl-1-[4-(pyridazin-3-yloxy)-cyclohexyl]-5,6-dihydro-4H-2,3,5,10b-tetraaza-benzo[e]azulene] | 9.12 |
| Fc1cccnc1O[C@H]1CC[C@H](c2nnc3n2-c2ccc(Cl)cc2CNC3)CC1 [Example 98, trans-8-Chloro-1-[4-(3-fluoro-pyridin-2-yloxy)-cyclohexyl]-5,6-dihydro-4H-2,3,5,10b-tetraaza-benzo[e]azulene] | 3.02 |
| Fc1ccc(O[C@H]2CC[C@H](c3nnc4n3-c3ccc(Cl)cc3CNC4)CC2)nc1 [Example 101, trans-8-Chloro-1-[4-(5-fluoro-pyridin-2-yloxy)-cyclohexyl]-5,6-dihydro-4H-2,3,5,10b-tetraaza-benzo[e]azulene] | 9.12 |
| Cc1cccc(O[C@H]2CC[C@H](c3nnc4n3-c3ccc(Cl)cc3CNC4)CC2)n1 [Example 105, trans-8-Chloro-1-[4-(6-methyl-pyridin-2-yloxy)-cyclohexyl]-5,6-dihydro-4H-2,3,5,10b-tetraaza-benzo[e]azulene] | 5.75 |
| Clc1ccc2c(c1)CNCc1nnc([C@H]3CC[C@@H](Oc4ccccn4)CC3)n1-2 [Example 110, cis-8-Chloro-1-[4-(pyridin-2-yloxy)-cyclohexyl]-5,6-dihydro-4H-2,3,5,10b-tetraaza-benzo[e]azulene] | 51.3 |
| CN1Cc2cc(Cl)ccc2-n2c(nnc2[C@H]2CC[C@@H](Oc3ccccn3)CC2)C1 [Example 111, cis-8-Chloro-5-methyl-1-[4-(pyridin-2-yloxy)-cyclohexyl]-5,6-dihydro-4H-2,3,5,10b-tetraaza-benzo[e]azulene] | 3.31 |
